Measured values taken from PubChem BioAssay AID330 (DTP/NCI, 2004).
“And” between values parts separate entries of the source, which are not always exact repeats. Equal values may be shown once. Toxic doses and inconclusive results are not listed.

System: P388 leukemia ip, CD2F1 mice, survival T/C
Test: NCI In Vivo Anticancer Drug Screen. Data for tumor model P388 Leukemia (intraperitoneal) in CD2F1 (CDF1) mice
Conditions: endpoint: median survival time, higher = longer survival
How it was run: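 Mice carrying the transplanted tumor received test compound or vehicle. Survival was recorded in each group, and the value is the treated-group measurement divided by that of the vehicle-treated control group.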

[1] = dose: 60.0 mg/kg/injection, schedule: Q01DX005 (ip), vehicle: saline with Tween-80
[2] = dose: 120.0 mg/kg/injection, schedule: Q01DX005 (ip), vehicle: saline with Tween-80
[3] = dose: 240.0 mg/kg/injection, schedule: Q01DX005 (ip), vehicle: saline with Tween-80
[4] = dose: 100.0 mg/kg/injection, schedule: Q01DX009 (ip), vehicle: saline with Tween-80
[5] = dose: 200.0 mg/kg/injection, schedule: Q01DX009 (ip), vehicle: saline with Tween-80
[6] = dose: 50.0 mg/kg/injection, schedule: Q01DX009 (ip), vehicle: saline
[7] = dose: 100.0 mg/kg/injection, schedule: Q01DX009 (ip), vehicle: saline
[8] = dose: 200.0 mg/kg/injection, schedule: Q01DX009 (ip), vehicle: saline
[9] = dose: 50.0 mg/kg/injection, schedule: Q01DX005 (ip), vehicle: Klucel (hydroxypropylcellulose) (HPC)
[10] = dose: 100.0 mg/kg/injection, schedule: Q01DX005 (ip), vehicle: Klucel (hydroxypropylcellulose) (HPC)
[11] = dose: 200.0 mg/kg/injection, schedule: Q01DX005 (ip), vehicle: Klucel (hydroxypropylcellulose) (HPC)
[12] = dose: 60.0 mg/kg/injection, schedule: Q01DX005 (ip), vehicle: saline
[13] = dose: 120.0 mg/kg/injection, schedule: Q01DX005 (ip), vehicle: saline
[14] = dose: 240.0 mg/kg/injection, schedule: Q01DX005 (ip), vehicle: saline

CCCCCCCCCCCSSCCCCCCCCCCC
T/C (dose: 100.0 mg/kg/injection, schedule: Q01DX009 (ip), vehicle: other): 100 % of control
T/C (dose: 100.0 mg/kg/injection, schedule: Q04DX003 (ip), vehicle: other): 109 % of control
T/C (dose: 200.0 mg/kg/injection, schedule: Q01DX009 (ip), vehicle: other): 109 % of control
T/C (dose: 200.0 mg/kg/injection, schedule: Q04DX003 (ip), vehicle: other): 104 % of control
T/C (dose: 400.0 mg/kg/injection, schedule: Q01DX009 (ip), vehicle: other): 104 % of control
T/C (dose: 400.0 mg/kg/injection, schedule: Q04DX003 (ip), vehicle: other): 100 % of control

COc1cc2c(c(OC)c1OC)-c1ccc(OC)c(=O)cc1[C@@H](NC(=O)C(F)(F)F)CC2
T/C (dose: 0.09 mg/kg/injection, schedule: Q01DX009 (ip), vehicle: Klucel (hydroxypropylcellulose) (HPC)): 121 % of control
T/C (dose: 0.18 mg/kg/injection, schedule: Q01DX009 (ip), vehicle: Klucel (hydroxypropylcellulose) (HPC)): 123 % of control
T/C (dose: 6.0 micrograms/kg/injection, schedule: Q01DX009 (ip), vehicle: Klucel (hydroxypropylcellulose) (HPC)): 101 % of control
T/C (dose: 12.0 micrograms/kg/injection, schedule: Q01DX009 (ip), vehicle: Klucel (hydroxypropylcellulose) (HPC)): 111 % of control
T/C (dose: 24.0 micrograms/kg/injection, schedule: Q01DX009 (ip), vehicle: Klucel (hydroxypropylcellulose) (HPC)): 112 % of control
T/C (dose: 24.38 micrograms/kg/injection, schedule: Q01DX009 (ip), vehicle: Klucel (hydroxypropylcellulose) (HPC)): 120 % of control
T/C (dose: 48.0 micrograms/kg/injection, schedule: Q01DX009 (ip), vehicle: Klucel (hydroxypropylcellulose) (HPC)): 121 % of control
T/C (dose: 48.75 micrograms/kg/injection, schedule: Q01DX009 (ip), vehicle: Klucel (hydroxypropylcellulose) (HPC)): 120 % of control
T/C (dose: 97.0 micrograms/kg/injection, schedule: Q01DX009 (ip), vehicle: Klucel (hydroxypropylcellulose) (HPC)): 119 % of control
T/C (dose: 97.5 micrograms/kg/injection, schedule: Q01DX009 (ip), vehicle: Klucel (hydroxypropylcellulose) (HPC)): 118 % of control
T/C (dose: 195.0 micrograms/kg/injection, schedule: Q01DX009 (ip), vehicle: Klucel (hydroxypropylcellulose) (HPC)): 122 % of control
T/C (dose: 390.0 micrograms/kg/injection, schedule: Q01DX009 (ip), vehicle: Klucel (hydroxypropylcellulose) (HPC)): 155 % of control

CCCC1(c2ccccc2)CCCC(C#N)C1=O (centres undefined)
T/C (dose: 100.0 mg/kg/injection, schedule: Q04DX002 (ip), vehicle: Klucel (hydroxypropylcellulose) (HPC)): 104 % of control
T/C (dose: 200.0 mg/kg/injection, schedule: Q04DX002 (ip), vehicle: Klucel (hydroxypropylcellulose) (HPC)): 107 % of control
T/C (dose: 400.0 mg/kg/injection, schedule: Q04DX002 (ip), vehicle: Klucel (hydroxypropylcellulose) (HPC)): 106 % of control

OC1COC(c2nn(-c3ccccc3)c3nc4ccccc4nc23)C1O (centres undefined)
T/C (dose: 50.0 mg/kg/injection, schedule: Q01DX005 (ip), vehicle: saline with Tween-80): 87 % of control
T/C (dose: 100.0 mg/kg/injection, schedule: Q01DX005 (ip), vehicle: saline with Tween-80): 87 % of control
T/C (dose: 200.0 mg/kg/injection, schedule: Q01DX005 (ip), vehicle: saline with Tween-80): 87 % of control

Cn1nc(-c2ccccc2)c(-c2cc(-c3ccccc3)n[nH]2)c(N)c1=O
T/C [1]: 87 % of control
T/C [2]: 89 % of control
T/C [3]: 97 % of control

Cc1ccc(S(=O)(=O)NC(=O)c2ccccc2)cc1
T/C [4]: 100 % of control
T/C [5]: 100 % of control
T/C (dose: 400.0 mg/kg/injection, schedule: Q01DX009 (ip), vehicle: saline with Tween-80): 91 % of control

COc1ccc(OC)c(NC(=O)Nc2nccs2)c1
T/C (dose: 22.5 mg/kg/injection, schedule: Q01DX009 (ip), vehicle: Klucel (hydroxypropylcellulose) (HPC)): 99 % of control
T/C (dose: 45.0 mg/kg/injection, schedule: Q01DX009 (ip), vehicle: Klucel (hydroxypropylcellulose) (HPC)): 100 % of control
T/C (dose: 90.0 mg/kg/injection, schedule: Q01DX009 (ip), vehicle: Klucel (hydroxypropylcellulose) (HPC)): 97 % of control
T/C (dose: 180.0 mg/kg/injection, schedule: Q01DX009 (ip), vehicle: Klucel (hydroxypropylcellulose) (HPC)): 92 % of control

CC1OC2COC(C)OC2C(C2CN2)O1 (centres undefined)
T/C [6]: 110 % of control
T/C [7]: 100 % of control
T/C [8]: 117 % of control

O=C1C=C(O)CC2(CCCCC2)C1
T/C [9]: 102 % of control
T/C [10]: 100 % of control and 96 % of control
T/C [11]: 104 % of control and 105 % of control

O=C(O)CCCCCCC(=O)CCl
T/C (dose: 25.0 mg/kg/injection, schedule: Q04DX003 (ip), vehicle: saline): 110 % of control
T/C (dose: 50.0 mg/kg/injection, schedule: Q04DX003 (ip), vehicle: saline): 110 % of control
T/C (dose: 50.0 mg/kg/injection, schedule: Q04DX003 (ip), vehicle: suspension in saline): 119 % of control
T/C (dose: 100.0 mg/kg/injection, schedule: Q04DX003 (ip), vehicle: saline): 121 % of control
T/C (dose: 100.0 mg/kg/injection, schedule: Q04DX003 (ip), vehicle: suspension in saline): 116 % of control

CC(=O)CSc1ncnc2nc[nH]c12
T/C (dose: 100.0 mg/kg/injection, schedule: Q04DX003 (ip), vehicle: saline with Tween-80): 100 % of control
T/C (dose: 200.0 mg/kg/injection, schedule: Q04DX003 (ip), vehicle: saline with Tween-80): 113 % of control
T/C (dose: 400.0 mg/kg/injection, schedule: Q04DX003 (ip), vehicle: saline with Tween-80): 109 % of control

CCN(CC)Cc1cc(C)c(O)c(N=Nc2ccc3c(c2)c2ccccc2n3CC)c1C
T/C (dose: 50.0 mg/kg/injection, schedule: Q01DX009 (ip), vehicle: saline with Tween-80): 102 % of control
T/C [4]: 110 % of control
T/C [5]: 101 % of control

CCN(CC)CCCNc1nccc2ccc(OC)cc12
T/C (dose: 50.0 mg/kg/injection, schedule: Q01DX005 (ip), vehicle: saline): 99 % of control
T/C (dose: 100.0 mg/kg/injection, schedule: Q01DX005 (ip), vehicle: saline): 99 % of control
T/C (dose: 200.0 mg/kg/injection, schedule: Q01DX005 (ip), vehicle: saline): 97 % of control

COc1ccc(-n2c(=O)c(N=Nc3ccc(S(=O)(=O)N=C(N)N)cc3)c(O)n(-c3ccc(Cl)cc3)c2=S)cc1
T/C (dose: 100.0 mg/kg/injection, schedule: Q01DX002 (ip), vehicle: Klucel (hydroxypropylcellulose) (HPC)): 99 % of control
T/C (dose: 200.0 mg/kg/injection, schedule: Q01DX002 (ip), vehicle: Klucel (hydroxypropylcellulose) (HPC)): 107 % of control
T/C (dose: 400.0 mg/kg/injection, schedule: Q01DX002 (ip), vehicle: Klucel (hydroxypropylcellulose) (HPC)): 106 % of control

CSc1nc2c(nnn2C2OC(CO)C(O)C(O)C2O)c(=O)n1C (centres undefined)
T/C [12]: 97 % of control
T/C [13]: 97 % of control
T/C [14]: 100 % of control

Cc1ccc(C2COc3cc(O)c(O)cc3C2)cc1 (centres undefined)
T/C [1]: 103 % of control
T/C [2]: 105 % of control
T/C [3]: 117 % of control

Nc1n[nH][nH]c1=O
T/C [12]: 100 % of control
T/C [13]: 116 % of control
T/C [14]: 100 % of control

Cn1c(C=O)cnc1[N+](=O)[O-]
T/C (dose: 12.5 mg/kg/injection, schedule: Q01DX009 (ip), vehicle: Klucel (hydroxypropylcellulose) (HPC)): 108 % of control
T/C (dose: 25.0 mg/kg/injection, schedule: Q01DX009 (ip), vehicle: Klucel (hydroxypropylcellulose) (HPC)): 111 % of control
T/C (dose: 50.0 mg/kg/injection, schedule: Q01DX009 (ip), vehicle: Klucel (hydroxypropylcellulose) (HPC)): 111 % of control and 115 % of control

CCOC(=O)N1C(C)C2C=CC1C(S(=O)(=O)c1ccccc1)C2 (centres undefined)
T/C [9]: 97 % of control
T/C [10]: 102 % of control
T/C [11]: 97 % of control

CC1C(C#N)C(=O)NC(=O)C1C#N (centres undefined)
T/C [6]: 99 % of control
T/C [7]: 100 % of control
T/C [8]: 100 % of control

CCOC(=O)C(=CNC1CC(OC2C[C@](O)(C(C)=O)Cc3c(O)c4c(c(O)c32)C(=O)c2c(OC)cccc2C4=O)OC(C)C1O)C(=O)OCC (some centres undefined)
T/C (dose: 6.25 mg/kg/injection, schedule: Q04DX003 (ip), vehicle: saline with Tween-80): 95 % of control
T/C (dose: 12.5 mg/kg/injection, schedule: Q04DX003 (ip), vehicle: saline with Tween-80): 100 % of control
T/C (dose: 25.0 mg/kg/injection, schedule: Q04DX003 (ip), vehicle: saline with Tween-80): 104 % of control
T/C (dose: 50.0 mg/kg/injection, schedule: Q04DX003 (ip), vehicle: saline with Tween-80): 108 % of control
